Among the data in patent publication US12209099B2, “Azetidobenzodiazepine dimers and conjugates comprising them for use in the treatment of cancer” (MEDIMMUNE LIMITED, priority 2019, dated 2025) are IC50 values, retold here.

This assay relates to carcinoma cell line NCI-N87. The assay can be described thus: Cytotoxicity assay of warheads (MTS, 7 days). Format: cell-based. Conditions: Homo sapiens, 168 h, NCI-N87, 7 days incubation, mean of three independent replicates. As for the experimental part: The potency of the molecules were measured via in vitro cytotox assays in the carcinoma cell line NCI-N87.
Solid material was dissolved in DMSO to a 2 mM stock solution, from which eight serial dilutions were made at a 1:10 ratio in DMSO and stored at −20° C. until use.
Adherent NCI-N87 cells were washed with D-PBS and detached with Trypsin-EDTA, cell density and viability were then determined in duplicate by Trypan blue exclusion assay using an automated cell counter (LUNA-II™). Cell suspension was diluted to 1×10^5 cells/ml in growth media (RPMI 1640 with Glutamax+10% (v/v) HyClone™ Fetal Bovine Serum) and vortexed before dispensing 2 mL per well into sterile 3 mL polypropylene plates. Warhead dilutions were then dispensed into the appropriate wells at 10 μl/well and mixed by repeat pipetting. For control wells 10 μl of DMSO was dispensed onto 2 mL cell suspension, and thoroughly mixed. 100 μl of each sample was then aliquoted into 2 replicate wells of a sterile flat 96-well microplate and incubated in a 37° C. CO2-gassed (5%) incubator. At the end of the incubation period time (7 days), cell viability was measured by CellTiter 96 Aqueous One (MTS) assay, which was dispensed at 20 μl/well and incubated for 4 hours at 37° C., 5% CO2. Plates were then read on an EnVision Multi-label Plate Reader (Perkin Elmer) using absorbance at 490 nm.
Cell survival percentage was calculated from the mean absorbance of the 2 replicate wells for each sample, compared to the mean absorbance in the two control wells treated with DMSO only (100%). The IC50 was determined by fitting each data set to sigmoidal dose-response curves with a variable slope using the non-linear curve fit algorithm on the GraphPad Prism software (San Diego, CA).
All the experiments in this report were carried out and tested in three independent experiments. Data are reported as the mean of the three independent replicates.
For the compound `COc1cc2c(cc1OCCCCCOc1cc3c(cc1OC)C(=O)N1CC[C@H]1C=N3)N=C[C@@H]1CCN1C2=O` [Ex1, (10aS,10a′S)-7,7′-(pentane-1,5-diylbis(oxy))bis(6-methoxy-1,10a-dihydroazeto[1,2-a]benzo[e][1,4]diazepin-4(2H)-one)], the IC50 turned out to be 2.2 nM. The figure for `COc1cc2c(cc1OCCCOc1cc3c(cc1OC)C(=O)N1CC[C@H]1C=N3)N=C[C@@H]1CCN1C2=O` [Ex2A, (10aS,10a′S)-7,7′-(propane-1,3-diylbis(oxy))bis(6-methoxy-1,10a-dihydroazeto[1,2-a]benzo[e][1,4]diazepin-4(2H)-one)] is 70.1 nM; for `COc1cc2c(cc1OCc1cccc(COc3cc4c(cc3OC)C(=O)N3CC[C@H]3C=N4)c1)N=C[C@@H]1CCN1C2=O` [Ex2B, (10aS,10a′S)-7,7′-((1,3-phenylenebis(methylene))bis(oxy))bis(6-methoxy-1,10a-dihydroazeto[1,2-a]benzo[e][1,4]diazepin-4(2H)-one)] it is 4.04 nM.

Usually IC50 stands for the concentration that gives 50% inhibition. A low value points to inhibition by little substance.
